Tests used:
[1] = system: castration resistant prostate cancer (CRPC); assay: CEC, CTC, ET-1 and TF levels during docetaxel treatment of CRPC patients; assay type: in vivo, human
Protocol: Blood samples were collected from 231 patients with CRPC by venesection into 2×10 mL CellSave tubes (Veridex, LLC, Raritan, N.J.) and 1×6 mL serum tube in a multi-center prospective study. One CellSave tube was used to determine the number of CTC for prediction of OS. Results on CTC levels measured in this group have been previously published. The second collected CellSave tube was used to determine CEC numbers.
In order to assess a homogenous group of patients with respect to systemic therapy, we selected all who were scheduled to receive docetaxel or a docetaxel containing regimen (n=162) from the 231 patients. Treatment was continued until progression or unacceptable toxicity. Main eligibility criteria included age ≧18 years, pathological diagnosis of adenocarcinoma of the prostate, first or later line of chemotherapy, serum testosterone <1.7 nmol/L ([…]), Eastern Cooperative Oncology Group (ECOG) performance status 0-2, pretreatment serum PSA≧5 ng/mL, PSA progression (rises above a reference value) despite androgen deprivation therapy, and ability to sign informed consent. This study was approved by the local Institutional Medical Ethical Review Boards and is in agreement with the Helsinki declaration of 2000. Written informed consent was obtained from all patients prior to participation.
CEC and CTC counts were determined prior to initiation of chemotherapy and after 2-5 weeks (first follow-up draw) and 6-8 weeks (second follow-up draw) of treatment. Serum concentrations of ET-1 and TF were also determined at these same time points.
The CellTracks® AutoPrep® and CellTracks Analyzer II® Systems (both Veridex, LLC, Raritan, N.J.) were used to count CTC and CEC. CTC were defined as intact cells positive for the nuclear stain 4′ 6-diamidinophenylindole (DAPI), the epithelial cell adhesion molecule (EpCAM), and for cytokeratins 8, 18 and 19 that also lacked expression of the panleukocyte marker CD45. CEC were identified as intact cells positive for DAPI, CD146 and CD105 that also lacked expression of CD45.
The technical details of both assays have been published previously. […]
Serum concentrations (pg/mL) of ET-1 and TF-1 were determined by ELISA. […] Absorbance was read at 450 nm using a Titertek 212 MS microplate reader (Titertek, Huntsville, Ala.). […]
Longitudinal biomarker data were analyzed using a random effects linear regression model using the maximum likelihood random effects estimator (the “xtreg, mle” command in STATA). […] To determine a cutoff value for survival analysis of CEC numbers and serum concentrations of ET-1 and TF, patient data were first stratified according percentiles (p0-p25; p25-p50, p50-p75, and p75-p100), in which either their baseline value or the change between baseline values and those determined at 2-5 weeks would fall. […]

[2] = system: metastatic prostate cancer; assay: Response to therapy in metastatic androgen-independent prostate cancer patients (reduction in PSA levels); assay type: in vivo, human
From the text: Thus, disclosed herein is a method of expression profiling of gene of interest in CTCs using real time quantitative RT-PCR. Briefly, in a proof of concept, in total RNA isolated from circulating tumor cells of each of 40 metastatic prostate cancer patients gene expression profiles of 14 candidate genes were investigated by real time quantitative RT-PCR. […] Based on this application of RT-PCR based detection of the TMPRSS2-ERG fusion gene expression, patients are stratified for effective treatment with docetaxel chemotherapy, with an overall improvement in disease outcome and quality of life with very high specificity.
Briefly, the 40 subjects were recruited from the Cedars-Sinai Medical Center in Los Angeles. Appropriate IRB approvals were obtained prior to patient sample collection. The inclusion criteria consisted of: patient must be at least 18 years old and with clinical diagnosis of Stage IV (metastatic) prostate cancer; patients must provide written consent/authorization to participate in this study, no signs or symptoms of active infection, willing and able to comply with procedures required in this protocol.
All patients were receiving treatments at Cedars-Sinai Medical Center at Los Angeles and all have metastatic prostate cancers. […]

Compound: CC(=O)O[C@@]12CO[C@@H]1C[C@H](O)[C@@]1(C)C(=O)[C@H](O)C3=C(C)[C@@H](OC(=O)[C@H](O)[C@@H](NC(=O)OC(C)(C)C)c4ccccc4)C[C@@](O)([C@@H](OC(=O)c4ccccc4)[C@H]21)C3(C)C [Docetaxel]
- Change in CTC numbers ([1]; after 2-5 weeks of treatment, cells/7.5 mL blood): decreased significantly
- Change in serum TF ([1]; after 6-8 weeks of therapy vs baseline and first follow-up draw, ELISA): significant decrease
- Serum concentrations of ET-1 during treatment ([1]; baseline, 2-5 and 6-8 weeks, ELISA): remained constant
- Change in CEC numbers vs baseline ([1]; first follow-up draw, 2-5 weeks after initiation of docetaxel, cells/4.0 mL blood): significant increase
- Response to treatment, Number of Patients ([2]; 40 metastatic prostate cancer patients, Tax 14 patients, Tax + RAD 11 patients treated): 7
- Patients with T1E4 or T2E4 fusion gene expression in CTCs who responded to the therapy ([2]; five fusion-positive patients received Docetaxel-based therapy (Docetaxel or Docetaxel plus RAD001)): 5 patients

Reference: patent publication US20110166030A1, “Prediction of response to docetaxel therapy based on the presence of TMPRSSG2:ERG fusion in circulating tumor cells” (priority 2009, published 2011)
